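Grown in 96-well plates, cells were treated for 48 hours with each compound at five concentrations. Insufficient inhibition: endpoint recorded as highest concentration tested. Definition used: TGI = concentration required for complete inhibition of growth.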
Key:
Experiment in all cases: inhibition of tumour cell growth, NCI panel, 48 h
[1] = test system: 786-0 renal
[2] = test system: SNB-19 CNS
[3] = test system: EKVX NSCLC
[4] = test system: DU-145 prostate
[5] = test system: SF-539 CNS
[6] = test system: MOLT-4 leukemia
[7] = test system: SK-MEL-28 melanoma
[8] = test system: MALME-3M melanoma
[9] = test system: HT29 colon
[10] = test system: PC-3 prostate
[11] = test system: A549 NSCLC
[12] = test system: HOP-92 NSCLC
[13] = test system: SK-MEL-2 melanoma
[14] = test system: RXF 393 renal
[15] = test system: MDA-MB-435
[16] = test system: SK-MEL-5 melanoma
[17] = test system: TK-10 renal
[18] = test system: UACC-62 melanoma
[19] = test system: HCC-2998 colon

Row | Compound | TGI [1] [µM] | TGI [2] [µM] | TGI [3] [µM] | TGI [4] [µM] | TGI [5] [µM] | TGI [6] [µM] | TGI [7] [µM] | TGI [8] [µM] | TGI [9] [µM] | TGI [10] [µM] | TGI [11] [µM] | TGI [12] [µM] | TGI [13] [µM] | TGI [14] [µM] | TGI [15] [µM] | TGI [16] [µM] | TGI [17] [µM] | TGI [18] [µM] | TGI [19] [µM]
1 | CC1OC(=O)c2ccccc2NC1=O (stereo not given) | > 100 | > 100 | > 100 | > 100 | > 100 | > 100 | > 100 | > 100 | > 100 | > 100 | > 100 | > 100 | > 100 | > 100 | > 100 | > 100 | > 100 | > 100 | 
2 | CN1CCN(c2ccc3[nH]c(C4=C(O)c5nc(CO)n(C)c5C(=O)C4=O)nc3n2)CC1 | > 100 | > 100 | > 100 | > 100 | > 100 | > 100 | > 100 | > 100 | > 100 | > 100 | > 100 | > 100 | > 100 | 91.4 | > 100 |  |  | > 100 | > 100
3 | O=C(NC(Nc1ccc(F)c(Cl)c1)(C(F)(F)F)C(F)(F)F)C(C(F)(F)F)C(F)(F)F | > 100 | > 100 | > 100 | > 100 | 48.7 | 57 | > 100 | 62 | 67.9 | > 100 | > 100 | > 100 | 44.5 | 63.4 | > 100 | 81.3 | > 100 |  | > 100
4 | CC1(C)CCc2c(c(N=Nc3ccccc3)c3ccccc3c2O)O1 | 30.8 | > 100 | 59.5 | 83 | 69.6 | > 100 | > 100 | > 100 | 34 | 71.8 | > 100 | 63.9 | 34.5 | 33.6 | 83.5 | > 100 | 46.1 | > 100 | 
5 | C[C@@H]1OC(=O)C[C@H]2CC(=O)N(CCc3cn(S(=O)(=O)C(F)(F)F)c4ccccc34)C[C@@H]21 | > 100 | > 100 | > 100 | > 100 |  | > 100 | > 100 | > 100 | > 100 | > 100 | > 100 | > 100 | > 100 | > 100 | > 100 | > 100 | > 100 | > 100 | > 100
6 | CSc1c(C#N)c2n(c3ccccc3[n+]2C)c2ncccc12 | 50.3 | > 100 | 50.5 | 47.2 |  | > 100 | 49.1 | 40.3 | > 100 | 45.3 | 77 |  | 39.7 | 37.2 | > 100 | 30.5 |  | 38.9 | > 100
7 | Cc1[nH]c2ccccc2c1C=Nc1ccc(Oc2ccccc2)cc1 | 30.3 | 33.1 | 27.4 | 30.4 | 33 | 35.7 | 34.7 | 34.6 | 31.3 | 26.9 | 32.3 | 31.2 | 34.3 | 31.7 | 31.8 | 28.9 | 30.2 | 32 | 
8 | CCC1(C)N=C(C(N)=O)c2ncn(N=C(C)C)c2N1 (stereo not given) | > 100 | > 100 | > 100 | > 100 | > 100 |  | > 100 | > 100 | > 100 | > 100 | > 100 | > 100 |  | > 100 | > 100 | > 100 | > 100 | > 100 | > 100
9 | O=[N+]([O-])C1(C2([N+](=O)[O-])CCCC2)CCCC1 | > 100 | > 100 | > 100 | > 100 | > 100 | > 100 | > 100 | > 100 | > 100 | > 100 | > 100 |  | > 100 | > 100 | > 100 | > 100 | > 100 | > 100 | > 100
10 | NNC(=O)c1n[nH]nc1SSc1n[nH]nc1C(=O)NN | > 100 | > 100 | > 100 | > 100 | > 100 | > 100 | > 100 |  | > 100 | > 100 | > 100 | > 100 | > 100 | > 100 | > 100 | > 100 | > 100 | > 100 | > 100
11 | NC(CCCCNc1ccn(C2OC(CO)C(O)C2O)c(=O)n1)C(=O)O (stereo not given) | > 100 | > 100 | > 100 | > 100 | > 100 | > 100 | > 100 | > 100 |  | > 100 | > 100 | > 100 | > 100 | > 100 | > 100 | > 100 | > 100 | > 100 | > 100
12 | CC(=O)c1cn(-c2ccc(Cl)cc2)c(=O)c2c(N)n[nH]c12 | > 100 | > 100 | > 100 | > 100 |  | > 100 | > 100 |  | > 100 | > 100 |  |  | > 100 | > 100 | > 100 | > 100 | > 100 | > 100 | > 100
13 | S=C(Nc1ccc(Br)cn1)NC12CC3CC(CC(C3)C1)C2 | 21.3 | 25.9 | 65 | > 100 | 33.7 | 67.6 | > 100 | 58.9 |  | 43.2 | 53.5 | 26.4 | 51.7 | 37 | > 100 |  |  | 43.4 | 83.3

— PubChem BioAssay (NCI)
